Measurements as given in patent US20240116897A1, “BENZOTHIAZOLE AND BENZIMIDAZOLE DERIVATIVES, PHARMACEUTICALLY ACCEPTABLE SALT THEREOF, PREPARATION METHOD THEREFOR, AND PHARMACEUTICAL COMPOSITION COMPRISING SAME AS ACTIVE INGREDIENT” (KOREA RESEARCH INSTITUTE OF CHEMICAL TECHNOLOGY, priority 2021, published 2024).
Read-outs that look alike come from different tables or passages of the source.

How the values were obtained:
SIRT7 protein = molecular target: T1, SIRT7 protein (Homo sapiens, UniProt Q9NRC8); test: SIRT Glo assay, inhibitory activity against Sirt7; assay type: biochemical; conditions: 10 μM compound
T1 construct: purchased SignalChem S41-30H
T1 sequence (Q9NRC8 1-400): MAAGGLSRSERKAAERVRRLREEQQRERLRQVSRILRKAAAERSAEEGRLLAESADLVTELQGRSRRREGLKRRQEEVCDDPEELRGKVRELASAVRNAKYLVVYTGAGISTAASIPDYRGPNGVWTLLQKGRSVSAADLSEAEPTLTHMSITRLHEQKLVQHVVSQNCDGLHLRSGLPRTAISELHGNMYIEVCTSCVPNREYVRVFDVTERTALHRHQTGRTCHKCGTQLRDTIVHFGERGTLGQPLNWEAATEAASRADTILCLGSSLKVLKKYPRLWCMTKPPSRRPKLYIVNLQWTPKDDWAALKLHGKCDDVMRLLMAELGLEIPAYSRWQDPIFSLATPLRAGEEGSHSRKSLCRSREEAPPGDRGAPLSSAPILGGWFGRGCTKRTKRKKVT
Summary of the method: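 Recombinant SIRT7 (20 ng per well) pre-incubated 30 min with compound in SIRT Glo buffer, then SIRT Glo substrate added for 1 h before luminescence reading. Background-subtracted signal expressed as % inhibition relative to no-compound control.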

COLO32ODM cells = test: LDH cytotoxicity test, cancer cell line; assay type: cell-based, human; conditions: 48 hours
Experimental: (§3) LDH released is measured to determine whether a compound is toxic.
(§4) Thermo's Cat. No. 88953 LDH Cytotoxicity assay kit was used. 20,000 cells were seeded in a 96 well plate and treated with 100 μM and 500 μM compounds after 24 hours of culture. After 48 hours, transfer 50 μL of the compound-treated culture supernatant to a new 96-well plate, add 50 μL of substrate mix buffer provided in the kit, block light, and react at room temperature for 30 minutes. After adding 50 μL of Stop solution, the absorbance was measured at 490 nm using a microplate reader (Molecular Device, spectramax i3).

[1] = system: COLO32ODM tumor xenograft; test: In vivo mouse tumor xenograft, COLO32ODM
Experimental: (§1) The compounds of the present invention were administered to mouse tumor xenograft to measure tumor suppression in vivo test. BALB/C-nu female 5-week-old mice were introduced. COLO32ODM and SW480 cells, which are human colorectal cancer cells, were isolated from culture flasks using trypsin and prepared at a concentration of 1×10^8 cell/ml. It was mixed with Matrigel (Gibco, Cat. No. A14133-02) at a ratio of 1:1 and injected 100 μL subcutaneously into the dorsal side of 5-week-old mice. After 2 weeks, when the volume of the mouse tumor reached 100 mm^3, oral administration of the compound was started 5 times a week. (Day 0), After that, it was conducted for 3 weeks.
(§2) In the negative control group, 0.1% Carboxylmethyl cellulose and 0.2% tween 80 solution were administered instead of the compound according to the same administration route and administration frequency. 6 mice were used for each experimental group (FIG. 3). The size of the tumor was measured in the long axis (length, L) and the short axis (width, W) once every 3 days, and the tumor volume (mm^3) was calculated as (L×W×W)/2 thereby the average for each group was calculated. Statistical processing was performed using the GraphPad Prism6 program, and a p-value of less than 0.05 was considered significant.
A 5-week-old nude mouse whose thymus was removed and whose T cells were reduced and whose immune system was suppressed was introduced, and human colorectal cancer cell lines, COLO32ODM and SW480, were subcutaneously injected.

SW480 tumor xenograft = test: In vivo mouse tumor xenograft, SW480; conditions: nude mice, oral 10 mpk, 20 mpk, 40 mpk, 3 weeks
Experimental: as §1
as §2, with “Dissolve the compound in 0.1% Carboxylmethyl cellulose (CMC) and 0.2% tween 80 solution at concentrations of 2 mg/ml, 4 mg/ml, and 8 mg/ml, and 100 ul was orally administered to achieve concentrations of 10 mpk, 20 mpk, and 40 mpk. In” for “In”, “Statistical processing was performed using the GraphPad Prism6 program, and a p-value of less than 0.05 was considered significant.” left out

WI38 cells = conditions: human, 48 h
Experimental: as §3, §4

For `CCNC(=O)N1CCN(Cc2ccc(C(=O)Nc3nc4ccccc4s3)cc2)CC1` [Compound 1-37, 4-(4-(benzo[d]thiazol-2-ylcarbamoyl)benzyl)-N-ethylpiperazine-1-carboxamide], the inhibition at 10 µM (SIRT7 protein) was 81%, the “cytotoxicity (LDH release) compared to the positive control that damaged all cell membranes” value (COLO32ODM cells; 100 μM) was 62.1% and the “cytotoxicity (LDH release) compared to the positive control that damaged all cell membranes” value (COLO32ODM cells; 500 μM) was 62.0%. For the same molecule, the “tumor size compared to the control group” value ([1]; nude mice, oral 10 mpk, 20 mpk, 40 mpk, 3 weeks) was “reduced”, the “dose dependence of tumor formation inhibitory effect” value ([1]; oral 10, 20, 40 mpk) was “concentration-dependent tumor formation inhibitory effect” and the “tumor formation inhibitory effect” value ([1]; oral 40 mpk) was “most significant tumor formation inhibitory effect”. For the same molecule, the “tumor size compared to the control group” value (SW480 tumor xenograft) was “reduced”, the “cytotoxicity (LDH release) compared to the positive control that damaged all cell membranes” value (WI38 cells; 100 μM) was 29.9% and the “cytotoxicity (LDH release) compared to the positive control that damaged all cell membranes” value (WI38 cells; 500 μM) was 41.6%.
